In patent publication EP0041644B1 (priority 1980, dated 1981):

How the values were obtained:
L1210 Leukemia [1] = assay: L1210 Leukemia - Test 1 (survival of tumor-bearing mice); type: in vivo; conditions: for Effect MST % T/C / MST Days: d. 1 only
Excerpt: This evaluation of the ammonium salt finds the drug to be active against L1210 (ip) leukemia when administered ip one day post-implant of 10^6 L1210 cells (maximum T/C was 164%). […] The vehicle for the ammonium salt was water.

L1210 Leukemia [2] = assay: L1210 Leukemia - Test 3 (vehicle comparison); type: in vivo, mice; conditions: for Effect MST % T/C / MST Days: Day 1 only
B16 Melanoma [3] = assay: B16 Melanoma - Test 1 (ip tumor brei); type: in vivo, mice; conditions: for Effect MST % T/C / MST Days: QD 1→9, vehicle H2O
B16 Melanoma [4] = assay: B16 Melanoma - Test 2 (ip tumor brei); type: in vivo, mice; conditions: QD +9

SMILES: [NH2][Pt]1([NH2])[O]C(=O)C([O-])C(=O)[O]1.[NH4+] [Example 1, 2-Hydroxymalonato diammine platinum (II), ammonium salt]
- Effect MST % T/C (L1210 Leukemia [1]; 10 mg/kg/day ip): 136 % T/C
- MST Days (L1210 Leukemia [1]; 10 mg/kg/day ip): 9.5 days
- Effect MST % T/C (L1210 Leukemia [1]; 20 mg/kg/day ip): 129 % T/C
- MST Days (L1210 Leukemia [1]; 20 mg/kg/day ip): 9.0 days
- Effect MST % T/C (L1210 Leukemia [1]; 40 mg/kg/day ip): 143 % T/C
- MST Days (L1210 Leukemia [1]; 40 mg/kg/day ip): 10.0 days
- Effect MST % T/C (L1210 Leukemia [1]; 60 mg/kg/day ip): 157 % T/C
- MST Days (L1210 Leukemia [1]; 60 mg/kg/day ip): 11.0 days
- Effect MST % T/C (L1210 Leukemia [1]; 80 mg/kg/day ip): 157 % T/C
- MST Days (L1210 Leukemia [1]; 80 mg/kg/day ip): 11.0 days
- Effect MST % T/C (L1210 Leukemia [1]; 100 mg/kg/day ip): 164 % T/C
- MST Days (L1210 Leukemia [1]; 100 mg/kg/day ip): 11.5 days
- maximum T/C (L1210 Leukemia [1]; ip one day post-implant of 10^6 L1210 cells, vehicle water): 164%
- Effect MST % T/C (L1210 Leukemia [2]; 40 mg/kg ip, vehicle H2O): 143 % T/C
- MST Days (L1210 Leukemia [2]; 40 mg/kg ip, vehicle H2O): 10.0 days
- Effect MST % T/C (L1210 Leukemia [2]; 40 mg/kg ip, vehicle Saline): 114 % T/C
- MST Days (L1210 Leukemia [2]; 40 mg/kg ip, vehicle Saline): 8.0 days
- Effect MST % T/C (L1210 Leukemia [2]; 60 mg/kg ip, vehicle H2O): 143 % T/C
- MST Days (L1210 Leukemia [2]; 60 mg/kg ip, vehicle H2O): 10.0 days
- Effect MST % T/C (L1210 Leukemia [2]; 60 mg/kg ip, vehicle Saline): 100 % T/C
- MST Days (L1210 Leukemia [2]; 60 mg/kg ip, vehicle Saline): 7.0 days
- Effect MST % T/C (L1210 Leukemia [2]; 80 mg/kg ip, vehicle H2O): 143 % T/C
- MST Days (L1210 Leukemia [2]; 80 mg/kg ip, vehicle H2O): 10.0 days
- Effect MST % T/C (L1210 Leukemia [2]; 80 mg/kg ip, vehicle Saline): 114 % T/C
- MST Days (L1210 Leukemia [2]; 80 mg/kg ip, vehicle Saline): 8.0 days
- Effect MST % T/C (L1210 Leukemia [2]; 100 mg/kg ip, vehicle H2O): 107 % T/C
- MST Days (L1210 Leukemia [2]; 100 mg/kg ip, vehicle H2O): 7.5 days
- Effect MST % T/C (L1210 Leukemia [2]; 100 mg/kg ip, vehicle Saline): 143 % T/C
- MST Days (L1210 Leukemia [2]; 100 mg/kg ip, vehicle Saline): 10.0 days
- Maximum increase in median lifespan (T/C) (L1210 Leukemia [2]; single dose ip, saline and water as vehicles): 143%
- Effect MST % T/C (B16 Melanoma [3]; 4 mg/kg/day ip): 192 % T/C
- MST Days (B16 Melanoma [3]; 4 mg/kg/day ip): 37.5 days
- Effect MST % T/C (B16 Melanoma [3]; 8 mg/kg/day ip): 190 % T/C
- MST Days (B16 Melanoma [3]; 8 mg/kg/day ip): 37.0 days
- Effect MST % T/C (B16 Melanoma [3]; 16 mg/kg/day ip): 121 % T/C
- MST Days (B16 Melanoma [3]; 16 mg/kg/day ip): 23,5 Days
- Effect MST % T/C (B16 Melanoma [3]; 24 mg/kg/day ip): 36 % T/C
- MST Days (B16 Melanoma [3]; 24 mg/kg/day ip): 7.0 days
- Effect MST % T/C (B16 Melanoma [3]; 32 mg/kg/day ip): 31 % T/C
- MST Days (B16 Melanoma [3]; 32 mg/kg/day ip): 6.0 days
- maximum T/C (B16 Melanoma [3]; ip B16, ip QD 1→9): 190%
- Average Weight Change (B16 Melanoma [4]; 2 mg/kg/day ip): -0.7 g
- Effect MST % T/C (B16 Melanoma [4]; 2 mg/kg/day ip): 153 % T/C
- MST Days (B16 Melanoma [4]; 2 mg/kg/day ip): 31.5 days
- Average Weight Change (B16 Melanoma [4]; 4 mg/kg/day ip): -2.0 g
- Effect MST % T/C (B16 Melanoma [4]; 4 mg/kg/day ip): 158 % T/C
- MST Days (B16 Melanoma [4]; 4 mg/kg/day ip): 32.5 days
- Average Weight Change (B16 Melanoma [4]; 8 mg/kg/day ip): -0.9 g
- Effect MST % T/C (B16 Melanoma [4]; 8 mg/kg/day ip): 180 % T/C
- MST Days (B16 Melanoma [4]; 8 mg/kg/day ip): 37.0 days
- Average Weight Change (B16 Melanoma [4]; 16 mg/kg/day ip): -1.3 g
- Effect MST % T/C (B16 Melanoma [4]; 16 mg/kg/day ip): 234 % T/C
- MST Days (B16 Melanoma [4]; 16 mg/kg/day ip): 48.0 days
- Survivors Day 10 (60) (B16 Melanoma [4]; Day 10, 2 mg/kg/day ip): 9/10
- Survivors Day 10 (60) (B16 Melanoma [4]; Day 10, 4 mg/kg/day ip): 9/10
- Survivors Day 10 (60) (B16 Melanoma [4]; Day 10, 8 mg/kg/day ip): 9/10
- Survivors Day 10 (60) (B16 Melanoma [4]; Day 10, 16 mg/kg/day ip): 8/10
- Survivors Day 10 (60) (B16 Melanoma [4]; Day 60 (figure in parentheses), 16 mg/kg/day ip): 2
- Water-solubility at room temperature: 10000 µg/mL
- Solubility in H2O at 22-25°C (water): 10000 µg/mL
